Here are results for 1 molecule from article PMC9822434, “Estradiol-Based Salicylaldehyde (Thio)Semicarbazones and Their Copper Complexes with Anticancer, Antibacterial and Antioxidant Activities” (Molecules, 2022).

A word on the MIC: it is the lowest concentration found to suppress growth. A word on the IC50: it is the concentration at which inhibition is half-maximal.

The format of series [1] is physicochemical. To be noted: cligand = 20 µM. An outline of the steps:
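UV–vis pH-metric titrations at 25.0 ± 0.1 °C, I = 0.10 M KCl, 30% (v/v) DMSO/H2O under argon; ligand 20 μM, pH 2.0–12.5, alone or with 1 or 0.5 equiv. Cu(II). Spectra 200–800 nm, 2 cm path; pKa, overall stability constants (β) and species spectra fitted with PSEQUAD.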

For series [2] the following is noted: Cu(II) complex (25 µM) with GSH (1.25 mM), pH 7.4, anaerobic; cited from earlier work.
The conditions of series [3]: cited from earlier work.
For a further series, the system named is E. faecalis ATCC 29212. Description: MIC determination. Particulars: Gram-positive E. faecalis ATCC 29212; Mueller Hinton Broth. Type of series: cell-based, Enterococcus faecalis. An outline of the steps:
(§1)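 Broth microdilution in Mueller Hinton Broth, two-fold serial dilutions starting at 100 µM compound (from 10 mM stocks in 90% DMSO). Each well inoculated with a 10^−4 dilution of overnight culture. MIC read per prior lab method.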

Series [4] in a line: DPPH free radical scavenging assay. The gist of the method: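 DPPH at 50 µM final mixed with compound (5–50 µM final) in ethanol at 25.0 ± 0.1 °C in tandem cuvette, read spectrophotometrically. Antioxidant activity percentage, IC50 (concentration reducing 50% of DPPH) and Trolox equivalent capacity derived; Trolox as positive control.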
A general note: Loss of DPPH colour is used to gauge radical scavenging.

Another series relates to S. aureus ATCC 25928. Description: MIC determination. Type of series: cell-based, Staphylococcus aureus. To be noted: Gram-positive S. aureus ATCC 25928; Mueller Hinton Broth. An outline of the steps:
as §1

The subject of series [5] is MCF-7 breast cancer cell line. Also on record: method as in doi:10.1039/D0NJ01070G, PMID 34453218, PMID 33951554. To be noted: cited from earlier work.
The next series relates to MCF-7. As to the kind of experiment: MTT cytotoxicity assay. Type of series: cell-based, human. To be noted: MCF-7, MTT, 24 h incubation time. An outline of the steps: (§2)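 Cells were exposed 24 h to 0–20 µM (2.5, 5, 10, 15, 20 µM) Cu(II) complexes, ligands or metal salts (equimolar ligand–CuCl2), then 0.5 mg/mL MTT for 1 h at 37 °C. Formazan was dissolved in DMSO and read at 570 nm; viability is relative to untreated control as 100%.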
In general terms: Tetrazolium assays rely on reduction of a dye to a coloured formazan, in cell work by metabolically active cells.

For a further series, the system named is MCF-7 KCR. Description: MTT cytotoxicity assay. Type of series: cell-based, human. To be noted: 24 h incubation time. An outline of the steps: as §2
For another series, the system named is DU-145. As to the kind of experiment: MTT cytotoxicity assay. Type of series: cell-based, human. To be noted: DU-145, MTT, 24 h incubation time. An outline of the steps: as §2
For the next series, the system named is A549. Description: MTT cytotoxicity assay. In kind it is cell-based, human. Particulars: 24 h incubation time. The gist of the method: as §2
Series [6] relates to A549, MCF-7, MCF-7 KCR and DU-145 cells. Description: γH2AX immunostaining (DNA double-strand breaks). In kind it is cell-based, human. To be noted: 20 µM, 3 h. As for the experimental part: In order to determine the degree of DNA damage induced by the treatments, DNA double-strand breaks were visualized by γH2AX immunostaining. For this, 1 × 10^5 cells/well were seeded onto coverslips in 24-well plates. […] Then, cells were fixed with 4% formaldehyde (Molar Chemicals, Halásztelek, Hungary), permeabilized with 0.3% Triton-X-100 (Calbiochem, Merck Millipore, Darmstadt, Germany) and were blocked using 5% bovine serum albumin (BSA) (Sigma-Aldrich, St. Louis, MO, USA). Then, the samples were incubated with anti-γH2AX antibody (Thermo Fisher Scientific, Waltham, MA, USA) in 1:300 dilution followed by Alexa 488 fluorophore-conjugated goat anti-mouse secondary antibody (Abcam, Cambridge, UK) in 1:600 dilution. The fluorescence intensity of the stained samples was detected by an Olympus FV10i confocal microscope.

[7] abbreviates: 30% (v/v) DMSO/H2O, T = 25.0 °C, I = 0.1 M (KCl).

Where only a bound is given, the exact number is not on record here.

Consider `CC12CCC3c4cc(C=NNC(N)=S)c(O)cc4CCC3C1CCC2=O` (centres unmarked) [estrone-TSC, reference compound], for which, in series [1] (calculated at pH 5.0, cCu(II) = 20 µM), the pCu5.0 was 7.7. In series [1] (estimated at pH 6.0, cCu(II) = 20 µM), the pCu6.0 is 9.2. For the same molecule, in series [2], the kobs is reported as 0.13 ^3 min^−1. Besides, the “logβ [CuLH−1]” value in series [3] (setting [7]) is 9.44 ^2. Besides, the “logβ [CuL]+” value in series [3] (setting [7]) was 13.18 ^2. Moreover, in series [3] (pH 7.4, cCu(II) = 20 µM, cligand = 20 µM), the pCu7.4 is reported as 11.9 ^2. Also, the MIC with E. faecalis ATCC 29212 and against S. aureus ATCC 25928 was >100 µM throughout. Besides, in [4] (DPPH assay in ethanol, 25 °C), the “TEAC (Trolox equivalent antioxidant capacity)” value is recorded as 0.7. In [4] (DPPH:compound = 1:1 ratio after 30 min, ethanol, 25 °C), the “% Scavenging Effect” value was 49.8%. Moreover, the IC50 in series [4] (in ethanol, T = 25 °C, cDPPH = 50 µM, ccompound = 5−50 µM) is 17.8 µM; in [5] it was 6.4 µM; with MCF-7, > 20 µM; with MCF-7 KCR, > 20 µM; in the series with DU-145 it was > 20 µM; in the series on A549, 16.7 ± 1.03 µM. The “DNA double-strand breaks (γH2AX) vs untreated control cells” value in series [6] was “None of these treatments caused a higher degree of DNA damage”.
